Some results are limits rather than exact numbers.

What all share (format): cell-based
In one assay the target is T1, CK1α (Homo sapiens, UniProt P48729+Q96SW2).
T1 construct: endogenous in cells; host or cells: MV-4-11
The assay is described as follows: Western blot CK1α degradation assay in MV-4-11 cells. The following applies: 6-8 hours. Here is the method:
(§1) MV-4-11 cells were grown in RPMI 1640 media supplemented with 10% fetal bovine serum, streptomycin and penicillin.
(§2) Cells were cultured at approximately 10^6 cells per mL and incubated in DMSO or the indicated compound for 6-8 hours. Whole cell extracts were prepared using RIPA buffer according to manufacturer's protocol (Pierce). Briefly, 3×10^6 cells were washed once in PBS, the cell pellets were resuspended in RIPA buffer and allowed to incubate for 15 minutes on ice. Cells debris was removed by centrifugation and the cleared whole cell lysates were transferred to new tubes for further analysis.
(§3) For Western blot analysis, whole cell protein extracts were separated on 4-12% SDS-polyacrylamide gels, transferred to nitrocellulose and probed with the indicated primary antibodies. Membranes were subsequently washed and probed with the appropriate IRDye secondary antibodies (LI-COR). The signal was detected using the Odyssey Imaging System (LI-COR).
(§4) The following antibodies were used in these studies: Anti-eRF3/GSPT1: Abcam, ab126090 (Cambridge, Mass.); Anti-Ikaros: Abcam, ab191394 (Cambridge, Mass.); Anti-CK1α: Abcam, ab108296 (Cambridge, Mass.); β-actin (8H10D10) mouse monoclonal antibody: Cell Signaling Technology, #3700 (Danvers, Mass.); IRDye 680RD Goat anti-rabbit antibody: LI-COR, 926-68071 (Lincoln, Nebr.); IRDye 800CW Goat anti-mouse antibody: LI-COR, 926-32210 (Lincoln, Nebr.).
(§5) In each of Tables 1-3, the % degradation values are reported as “A”, “B”, “C”, or “D.” “A” represents a % degradation value of less than 25% (value<25%); “B” represents a % degradation value of equal to or more than 25% and less than 50% (25%≤value<50%); “C” represents a % degradation value of equal to or more than 50% and less than 75% (50%≤value<75%); and “D” represents a % degradation value of equal to or more than 75% (value≥75%).
In general terms: A western blot detects proteins with antibodies after separation by electrophoresis.

A further assay concerns MOLM-13 cells. The assay is described as follows: MOLM-13 cell viability assay (CellTiter-Glo 2, 3 days, 2500 cells/well). The following applies: Homo sapiens, MOLM-13, 72 h, percentage of DMSO control. On the procedure: MOLM-13 cells were cultured in RPMI 1640 media supplemented with 10% fetal bovine serum, streptomycin and penicillin, and were plated in white walled 96-well plates at 2500 cells/well. Cells were incubated in DMSO (control) or the indicated compound for 3 days at 37° C. and 5% CO2. Following the incubation period, 100 μL of CellTiterGlow2 (CTG2) reagent (CellTiter-Glo®2 Luminescent Cell Viability Assay, Promega (Madison, Wis.)) was added to each well. Following a 10 minutes incubation with shaking, luminescence was measured using the EnVision Multimode plate reader.
The MOLM-13 cell viability values, measured as percentages of the DMSO control, are reported in Table 8 as “A”, “B”, “C”, or “D.” “A” represents a % viability value of less than 40% (value<40%). “B” represents a % viability value of equal to or more than 40% and less than 60% (40%≤value<60%). “C” represents a % viability value of equal to or more than 60% and less than 90% (60%≤value<90%). “D” represents a % viability value of equal or more than 90% (value≥90%).

The target of another assay is T2, GSPT1 (Homo sapiens, UniProt P15170+Q96SW2).
T2 construct: whole cell protein extracts were separated on 4-12% SDS-polyacrylamide gels; endogenous in cells; host or cells: MV-4-11
The experiment in a line: Western blot GSPT1 degradation assay in MV-4-11 cells. The settings on record: 1 μM, MV-4-11 cells, 6-8 hours. Here is the method:
as §1, §2, §3, §4, §5

The next assay concerns the target T3, IKAROS (Homo sapiens, UniProt Q13422+Q96SW2).
T3 construct: endogenous in cells; host or cells: MV-4-11
The assay is described as follows: Western blot IKAROS degradation assay in MV-4-11 cells. The settings on record: 6-8 hours. Here is the method:
as §1, §2, §3, §4, §5

The next assay concerns IL-2. The experiment in a line: IL-2 fold-change assay, anti-CD3 stimulated PBMCs, Mesoscale. The following applies: Homo sapiens, PBMC, 24 h, fold difference from the DMSO control. Here is the method: For the IL-2 analysis, 96 well plates were precoated with 1 μg/mL anti-human CD3 antibody (OKT3, eBioscience Inc., San Diego, Calif.). After washing with PBS, the indicated compound was added (50 μL/well) followed by PBMCs diluted at 3-4 million cells/mL (150 μL/well). Plates were incubated for 24 h and the supernatants collected for Mesoscale IL-2 analysis. IL-2 activity is measured as fold difference from the DMSO control.
In Table 7, the fold-change values are reported as “A”, “B”, “C”, or “D”. “A” represents a fold-change value of equal to or less than 1 (value≤1); “B” represents a fold-change value of more than 1 and equal to or less than 2 (1<value≤2); “C” represents a fold-change value of more than 2 and equal to or less than 3 (2<value≤3); and “D” represents a fold-change value of more than 3 (value>3).

The next assay deals with TNFα. The experiment in a line: TNF-α inhibition assay, LPS-induced PBMCs or CD14+ monocytes, Meso Scale. The settings on record: 100 ng/mL LPS 18-24 h. Here is the method:
(§6) Either frozen primary blood mononuclear cells (PBMCs) or frozen CD14+ mobilized peripheral blood monocytes were purchased from AllCells (PB003F, Normal Peripheral Blood MNC (Alameda, Calif.)). Cells were quick thawed, washed 1-time with RPMI-1640 (10% FBS/1% Pen-Strep) and plated in 96 well plates at 200,000 cells per well. Cells were pretreated with DMSO only or with the indicated compound for 1 h and then induced with 100 ng/mL lipopolysaccharide (LPS) for 18-24 h. The supernatant was analyzed for IL-1β, IL-6, and TNFα, using Meso Scale assay according to manufacturer's protocol. The negative control wells were treated with DMSO.

The test system of the next assay is IL-1β. The experiment in a line: IL-1β inhibition assay, LPS-induced PBMCs or CD14+ monocytes, Meso Scale. The following applies: 100 ng/mL LPS 18-24 h. Here is the method:
as §6

T3 sequence (Q13422 whole entry): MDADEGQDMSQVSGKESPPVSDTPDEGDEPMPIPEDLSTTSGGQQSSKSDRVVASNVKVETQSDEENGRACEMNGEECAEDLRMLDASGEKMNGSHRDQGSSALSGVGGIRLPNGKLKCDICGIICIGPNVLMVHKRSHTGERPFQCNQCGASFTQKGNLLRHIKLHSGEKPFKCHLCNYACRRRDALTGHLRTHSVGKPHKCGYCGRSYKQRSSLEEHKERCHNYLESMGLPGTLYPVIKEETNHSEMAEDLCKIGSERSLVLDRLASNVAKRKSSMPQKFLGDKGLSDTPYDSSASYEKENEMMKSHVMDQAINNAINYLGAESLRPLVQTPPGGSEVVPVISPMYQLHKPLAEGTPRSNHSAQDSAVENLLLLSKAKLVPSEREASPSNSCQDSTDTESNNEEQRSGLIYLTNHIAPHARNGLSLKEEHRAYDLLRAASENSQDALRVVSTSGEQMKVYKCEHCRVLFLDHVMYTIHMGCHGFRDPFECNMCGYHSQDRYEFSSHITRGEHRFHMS
T3 sequence (Q96SW2 whole entry): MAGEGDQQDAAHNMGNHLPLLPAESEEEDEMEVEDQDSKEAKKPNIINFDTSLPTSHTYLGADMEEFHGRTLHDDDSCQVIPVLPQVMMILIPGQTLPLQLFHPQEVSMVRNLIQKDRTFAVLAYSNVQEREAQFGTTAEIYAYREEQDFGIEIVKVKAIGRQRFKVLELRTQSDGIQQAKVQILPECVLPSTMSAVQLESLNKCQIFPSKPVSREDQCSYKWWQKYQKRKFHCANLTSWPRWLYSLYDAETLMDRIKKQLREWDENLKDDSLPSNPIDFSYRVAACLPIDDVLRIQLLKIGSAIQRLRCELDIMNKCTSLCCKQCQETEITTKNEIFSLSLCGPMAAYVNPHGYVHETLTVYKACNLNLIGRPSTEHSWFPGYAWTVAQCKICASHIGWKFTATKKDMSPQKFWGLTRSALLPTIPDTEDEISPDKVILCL
T3 sequence (Q16531 whole entry partner): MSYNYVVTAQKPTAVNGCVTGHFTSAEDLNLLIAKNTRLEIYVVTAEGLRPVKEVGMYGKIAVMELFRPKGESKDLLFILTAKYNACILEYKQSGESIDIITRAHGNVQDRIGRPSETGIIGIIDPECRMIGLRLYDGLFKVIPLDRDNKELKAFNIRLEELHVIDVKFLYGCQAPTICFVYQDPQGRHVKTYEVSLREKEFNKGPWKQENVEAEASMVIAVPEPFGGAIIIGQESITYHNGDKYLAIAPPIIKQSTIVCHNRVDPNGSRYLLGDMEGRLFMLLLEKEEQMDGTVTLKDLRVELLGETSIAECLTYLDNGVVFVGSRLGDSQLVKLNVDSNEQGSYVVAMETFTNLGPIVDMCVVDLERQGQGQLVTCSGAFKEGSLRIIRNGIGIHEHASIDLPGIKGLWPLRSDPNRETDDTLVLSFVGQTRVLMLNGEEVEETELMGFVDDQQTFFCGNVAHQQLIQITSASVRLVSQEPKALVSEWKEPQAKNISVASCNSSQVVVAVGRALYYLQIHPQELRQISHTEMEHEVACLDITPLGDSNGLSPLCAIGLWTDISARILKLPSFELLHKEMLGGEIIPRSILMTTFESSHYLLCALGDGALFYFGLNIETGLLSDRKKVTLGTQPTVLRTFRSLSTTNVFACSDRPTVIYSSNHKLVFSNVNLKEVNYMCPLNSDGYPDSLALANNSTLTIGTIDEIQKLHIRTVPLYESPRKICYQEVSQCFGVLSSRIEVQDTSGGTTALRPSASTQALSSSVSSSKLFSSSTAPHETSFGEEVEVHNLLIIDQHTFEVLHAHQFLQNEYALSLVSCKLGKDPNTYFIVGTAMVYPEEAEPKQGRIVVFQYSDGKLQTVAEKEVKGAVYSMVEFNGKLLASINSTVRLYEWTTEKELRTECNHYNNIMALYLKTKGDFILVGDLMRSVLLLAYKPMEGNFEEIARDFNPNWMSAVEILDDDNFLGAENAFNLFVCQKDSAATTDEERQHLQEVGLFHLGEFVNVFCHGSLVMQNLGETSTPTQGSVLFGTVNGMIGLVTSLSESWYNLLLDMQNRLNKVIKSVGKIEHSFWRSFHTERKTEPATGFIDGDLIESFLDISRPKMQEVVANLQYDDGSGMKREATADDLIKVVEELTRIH
T2 sequence (P15170 whole entry): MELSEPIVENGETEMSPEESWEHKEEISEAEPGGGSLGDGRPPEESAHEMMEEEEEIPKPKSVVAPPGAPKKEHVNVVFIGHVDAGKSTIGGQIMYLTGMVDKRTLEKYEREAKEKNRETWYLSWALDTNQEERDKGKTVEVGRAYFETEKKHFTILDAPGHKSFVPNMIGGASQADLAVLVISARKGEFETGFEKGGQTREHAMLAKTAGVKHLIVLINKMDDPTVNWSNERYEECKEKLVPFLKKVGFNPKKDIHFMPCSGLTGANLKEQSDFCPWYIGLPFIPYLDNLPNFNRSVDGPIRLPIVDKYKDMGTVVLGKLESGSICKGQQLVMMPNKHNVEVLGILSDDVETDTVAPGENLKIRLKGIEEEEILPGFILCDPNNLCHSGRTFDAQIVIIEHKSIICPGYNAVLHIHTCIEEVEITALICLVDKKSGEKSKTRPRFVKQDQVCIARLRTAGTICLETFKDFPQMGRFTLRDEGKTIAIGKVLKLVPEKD
T2 sequence (Q96SW2 whole entry): as the sequence (Q96SW2 whole entry) above
T2 sequence (Q16531 whole entry partner): as the sequence (Q16531 whole entry partner) above
T1 sequence (P48729 whole entry): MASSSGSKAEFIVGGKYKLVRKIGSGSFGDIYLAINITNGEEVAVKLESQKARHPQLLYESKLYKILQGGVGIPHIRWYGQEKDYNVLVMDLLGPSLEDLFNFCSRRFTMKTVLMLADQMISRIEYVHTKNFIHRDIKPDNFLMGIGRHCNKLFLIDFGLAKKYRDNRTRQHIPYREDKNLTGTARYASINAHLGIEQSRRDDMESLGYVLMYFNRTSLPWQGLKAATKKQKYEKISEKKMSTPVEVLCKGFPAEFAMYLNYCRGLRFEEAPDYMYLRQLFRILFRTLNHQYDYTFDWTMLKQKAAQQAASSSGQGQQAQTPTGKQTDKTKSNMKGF
T1 sequence (Q96SW2 whole entry): as the sequence (Q96SW2 whole entry) above
T1 sequence (Q16531 whole entry partner): as the sequence (Q16531 whole entry partner) above

With `Cc1ccc(NCC(=O)NCc2ccc3c(c2)CN(C2CCC(=O)NC2=O)C3=O)cc1N1CCCC1` (centres unmarked) [Compound 24, N-((2-(2,6-dioxopiperidin-3-yl)-1-oxoisoindolin-5-yl)methyl)-2-((4-methyl-3-(pyrrolidin-1-yl)phenyl)amino)acetamide], at CK1α, the “CK1α % Degradation at 1 μM” value is “B (a % degradation value of equal to or more than 25% and less than 50% (25%≤value<50%))”. Moreover, the viability (as a rule, a read-out of living cells in per cent, often relative to untreated cells) at 1 µM with MOLM-13 cells was > 90%. For the same molecule, on GSPT1, the “GSPT1 % Degradation at 1 μM” value is on record as “D (a % degradation value of equal to or more than 75% (value≥75%))”. Further, the “IKAROS % Degradation at 1 μM” value on IKAROS is “D (a % degradation value of equal to or more than 75% (value≥75%))”.

In the case of `Cc1cc(NCC(=O)NCc2ccc3c(c2)CN(C2CCC(=O)NC2=O)C3=O)ccc1N(C)C` (centres unmarked) [Compound 25, 2-((4-(dimethylamino)-3-methylphenyl)amino)-N-((2-(2,6-dioxopiperidin-3-yl)-1-oxoisoindolin-5-yl)methyl)acetamide], the “CK1α % Degradation at 1 μM” value on CK1α was “B (a % degradation value of equal to or more than 25% and less than 50% (25%≤value<50%))”. The fold induction – broadly, the signal under treatment as a multiple of the control signal – at 1 µM in the assay on IL-2 was 1 to 2. Besides, the “GSPT1 % Degradation at 1 μM” value at GSPT1 was “C (a % degradation value of equal to or more than 50% and less than 75% (50%≤value<75%))”. For the same molecule, the values for the inhibition at 1 µM in the assay on TNFα and with IL-1β were 30 to 50% and < 30%, respectively.

Turning to `CN(C)Cc1ccc(NCC(=O)NCc2ccc3c(c2)CN(C2CCC(=O)NC2=O)C3=O)cc1Cl` (centres unmarked) [Compound 26], the “CK1α % Degradation at 1 μM” value on CK1α is “C (a % degradation value of equal to or more than 50% and less than 75% (50%≤value<75%))”. For the same molecule, the “GSPT1 % Degradation at 1 μM” value on GSPT1 was “C (a % degradation value of equal to or more than 50% and less than 75% (50%≤value<75%))”.

Consider `Cc1ccc(NCC(=O)NCc2csc3c2CN(C2CCC(=O)NC2=O)C3=O)cc1Cl` (centres unmarked) [Compound 5, 2-((3-chloro-4-methylphenyl)amino)-N-((5-(2,6-dioxopiperidin-3-yl)-6-oxo-5,6-dihydro-4H-thieno[2,3-c]pyrrol-3-yl)methyl)acetamide], for which the “CK1α % Degradation at 1 μM” value on CK1α is recorded as “D (a % degradation value of equal to or more than 75% (value≥75%))”. Also, the viability at 1 µM in the assay with MOLM-13 cells is < 40%. Besides, the fold induction at 1 µM in the assay with IL-2 was > 3. The inhibition at 1 µM with TNFα and in the assay on IL-1β was > 75% each time. At IKAROS, the “IKAROS % Degradation at 1 μM” value is given as “D (a % degradation value of equal to or more than 75% (value≥75%))”.

Regarding `Cc1ccc(NCC(=O)NCc2cccc3c2CN(C2CCC(=O)NC2=O)C3=O)cc1Cl` (centres unmarked) [Compound 14, 2-((3-chloro-4-methylphenyl)amino)-N-((2-(2,6-dioxopiperidin-3-yl)-1-oxoisoindolin-4-yl)methyl)acetamide], at CK1α, the “CK1α % Degradation at 1 μM” value is “C (a % degradation value of equal to or more than 50% and less than 75% (50%≤value<75%))”. Moreover, the viability at 1 µM with MOLM-13 cells lay in the range of 40 to 60%. Moreover, the fold induction at 1 µM with IL-2 lay in the range of 2 to 3. Further, the “GSPT1 % Degradation at 1 μM” value at GSPT1 is “C (a % degradation value of equal to or more than 50% and less than 75% (50%≤value<75%))”. Further, the inhibition (in general, the drop in the measured response relative to a control, in per cent) at 1 µM is 50 to 75% in the assay on TNFα and > 75% in the assay on IL-1β. In addition, at IKAROS, the “IKAROS % Degradation at 1 μM” value is recorded as “D (a % degradation value of equal to or more than 75% (value≥75%))”.

Consider `Cc1cc(NCC(=O)NCc2ccc3c(c2)CN(C2CCC(=O)NC2=O)C3=O)ccc1N1CCCC1` (centres unmarked) [Compound 21, N-((2-(2,6-dioxopiperidin-3-yl)-1-oxoisoindolin-5-yl)methyl)-2-((3-methyl-4-(pyrrolidin-1-yl)phenyl)amino)acetamide], for which, on CK1α, the “CK1α % Degradation at 1 μM” value was “A (a % degradation value of less than 25% (value<25%))”. Further, the viability at 1 µM in the assay on MOLM-13 cells was < 40%. Besides, the fold induction at 1 µM with IL-2 is 1 to 2. The “GSPT1 % Degradation at 1 μM” value at GSPT1 is “C (a % degradation value of equal to or more than 50% and less than 75% (50%≤value<75%))”. Besides, the values for the inhibition at 1 µM in the assay on TNFα and with IL-1β were 30 to 50% and < 30%, respectively. In addition, the “IKAROS % Degradation at 1 μM” value at IKAROS was “C (a % degradation value of equal to or more than 50% and less than 75% (50%≤value<75%))”.

Turning to `Cc1cc(NCC(=O)NCc2scc3c2CN(C2CCC(=O)NC2=O)C3=O)ccc1N(C)C` (centres unmarked) [Compound 10, 2-((4-(dimethylamino)-3-methylphenyl)amino)-N-((5-(2,6-dioxopiperidin-3-yl)-4-oxo-5,6-dihydro-4H-thieno[3,4-c]pyrrol-1-yl)methyl)acetamide], at CK1α, the “CK1α % Degradation at 1 μM” value is “B (a % degradation value of equal to or more than 25% and less than 50% (25%≤value<50%))”. For the same molecule, the viability at 1 µM in the assay on MOLM-13 cells was > 90%. At GSPT1, the “GSPT1 % Degradation at 1 μM” value is given as “D (a % degradation value of equal to or more than 75% (value≥75%))”. Further, the “IKAROS % Degradation at 1 μM” value at IKAROS is given as “A (a % degradation value of less than 25% (value<25%))”.

For `Cc1ccc(NCC(=O)NCc2ccc3c(c2)CN(C2CCC(=O)NC2=O)C3=O)nc1Cl` (centres unmarked) [Compound 20, 2-((6-chloro-5-methylpyridin-2-yl)amino)-N-((2-(2,6-dioxopiperidin-3-yl)-1-oxoisoindolin-5-yl)methyl)acetamide], on CK1α, the “CK1α % Degradation at 1 μM” value was “B (a % degradation value of equal to or more than 25% and less than 50% (25%≤value<50%))”. For the same molecule, the viability at 1 µM in the assay on MOLM-13 cells was > 90%. For the same molecule, the “GSPT1 % Degradation at 1 μM” value on GSPT1 is “B (a % degradation value of equal to or more than 25% and less than 50% (25%≤value<50%))”. Moreover, the results for the inhibition at 1 µM with TNFα and in the assay on IL-1β were 30 to 50% and < 30%, respectively. Besides, the “IKAROS % Degradation at 1 μM” value at IKAROS is “B (a % degradation value of equal to or more than 25% and less than 50% (25%≤value<50%))”.

The values are drawn from patent US11400084B2 (BioTheryX, Inc., priority 2018, dated 2022).
